Read-outs that look alike come from different tables or passages of the source.
Legend:
[1] = tested on: human corneal epithelial cells (HCEC); settings: 1 μmol/L; TNF-α (10 ng/mL), 550 mOsm; after incubation for 3 h
murine DED model [2] = test: Tear volume measurement; type: in vivo, C57BL/6 mice; settings: DED mice
human SMS2 = molecular target: T1, human SMS2 (Homo sapiens, UniProt Q8NHU3); test: purified SMS enzyme inhibitory assay in vitro; type: biochemical
T1 sequence (Q8NHU3 1-365): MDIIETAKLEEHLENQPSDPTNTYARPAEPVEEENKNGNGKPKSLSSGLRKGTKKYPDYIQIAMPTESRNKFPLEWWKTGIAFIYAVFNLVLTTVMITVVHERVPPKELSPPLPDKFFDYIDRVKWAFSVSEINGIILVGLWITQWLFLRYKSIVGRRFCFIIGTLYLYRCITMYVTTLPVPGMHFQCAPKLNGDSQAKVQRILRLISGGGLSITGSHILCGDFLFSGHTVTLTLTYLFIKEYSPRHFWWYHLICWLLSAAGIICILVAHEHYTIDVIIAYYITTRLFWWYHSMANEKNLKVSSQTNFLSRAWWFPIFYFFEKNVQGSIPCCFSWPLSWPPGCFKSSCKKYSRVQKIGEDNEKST

murine DED model [3] = test: Corneal fluorescein staining in murine DED model; type: in vivo, C57BL/6 mice; settings: DED mice; 14l low dose 0.001% twice a day for 7 days
[4] = tested on: TNF-α protein expression in HCEC; test: Western blot of TNF-α protein expression in HCEC under hyperosmotic stress; type: cell-based, human; settings: 1 μmol/L; hyperosmotic 550 mOsm
human SMS1 = molecular target: T2, human SMS1 (Homo sapiens, UniProt Q86VZ5); test: purified SMS enzyme inhibitory assay in vitro; type: biochemical
T2 sequence (Q86VZ5 1-413): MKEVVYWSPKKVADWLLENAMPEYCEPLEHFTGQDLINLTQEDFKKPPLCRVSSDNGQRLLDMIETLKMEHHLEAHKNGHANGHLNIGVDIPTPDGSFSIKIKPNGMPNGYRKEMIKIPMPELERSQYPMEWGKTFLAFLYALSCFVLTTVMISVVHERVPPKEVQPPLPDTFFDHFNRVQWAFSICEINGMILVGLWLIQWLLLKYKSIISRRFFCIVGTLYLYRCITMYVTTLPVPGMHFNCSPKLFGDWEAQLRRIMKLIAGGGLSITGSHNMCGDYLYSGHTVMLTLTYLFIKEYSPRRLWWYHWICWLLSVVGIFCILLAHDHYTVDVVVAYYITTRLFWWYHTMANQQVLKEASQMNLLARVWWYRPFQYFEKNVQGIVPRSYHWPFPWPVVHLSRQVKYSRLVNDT

[5] = tested on: human corneal epithelial cells (HCEC); test: cells; settings: 24 h, read-out: EC50 of protective effect on HCEC viability
in vivo = settings: male, SD, rat, topical or ocular, 16 ug
[6] = tested on: TNFR1-Caspase3 activation in HCEC; test: Western blot of TNFR1, caspase3 and cleaved-caspase3 in HCEC; type: cell-based, human; settings: 14l 1/3 and 1 μmol/L; TNF-α 10 ng/mL, 550 mOsm
[7] = tested on: SM synthesis (SMS activity) in HCEC; test: Cellular SM synthesis inhibitory assay in HCEC; type: cell-based, human; settings: for EC50: Homo sapiens, HCEC, read-out: SM synthesis inhibitory EC50 in HCEC
[8] = SD rats
[9] = tested on: Tnf-α, Il-1β and Mmp-9 mRNA in mouse corneas; test: Quantitative PCR analysis of mouse corneas; type: in vivo, C57BL/6 mice; settings: DED mice, twice a day for 7 days
[10] = tested on: human corneal epithelial cells (HCEC); test: Cell viability and toxicity assay; type: cell-based; settings: within 25 μmol/L; 48 h
[11] = tested on: human corneal epithelial cells (HCEC); settings: 14l 1/3 and 1 μmol/L, CsA 1 μmol/L; TNF-α 10 ng/mL, 550 mOsm, 5 h
[12] = tested on: lipid content of meibomian glands; test: LC-MS/MS lipidomic analysis of murine meibomian gland tissue; type: in vivo, C57BL/6 mice; settings: DED mice
[13] = Conjunctiva, single drop 16 μg/eye
[14] = Meibomian glands, single drop 16 μg/eye
[15] = 14l 0.001% and 0.025%, CsA 0.05%

IC50 (human SMS2): 0.028 µM | Selectivity ratio (human SMS2; IC50, SMS1/IC50, SMS2): 589 | LLE (human SMS2; pIC50, SMS2 – ClogP): 2.21 | inhibition at 1 µM (human SMS2; read-out: SMS2 Inhibition @ 1 μmol/L (%)): 95% | IC50 (human SMS1): 16 µM | inhibition at 100 µM (human SMS1; read-out: SMS1 Inhibition @ 100 μmol/L (%)): 87% | Cmax (in vivo; conjunctiva): 358 ng/g | Tmax (in vivo; conjunctiva): 0.25 h | half-life (in vivo; conjunctiva): 1.3 h | Cmax (in vivo; cornea): 3050 ng/g | Tmax (in vivo; cornea): 1 h | half-life (in vivo; cornea): 1.11 h | Cmax (in vivo; meibomian glands): 2730 ng/g | Tmax (in vivo; meibomian glands): 1 h | half-life (in vivo; meibomian glands): 4.32 h | EC50 ([7]; 6 h): 0.3 µM | EC50 [7]: 0.131 mg/L | AUC0‒t [8, 13]: 489.73 ng·h/g | AUC0‒∞ [8, 13]: 564.99 ng·h/g | AUC0‒t ([8]; Cornea, single drop 16 μg/eye): 4339.41 ng·h/g | AUC0‒∞ ([8]; Cornea, single drop 16 μg/eye): 4567.46 ng·h/g | AUC0‒t [8, 14]: 14379.61 ng·h/g | AUC0‒∞ [8, 14]: 14670.67 ng·h/g | detection in blood and retina ([8]; single drop 16 μg/eye): not detected in the blood and retina
Compound: CCCCCCCCOc1ccccc1COc1ccsc1C(=O)Nc1cccnc1 [14l, 3-((2-(Octyloxy)benzyl)oxy)-N-(pyridin-3-yl)thiophene-2-carboxamide]
time-dependent protective effect in HCEC [1]: apparent and durative protective effect | tear volume (Schirmer's test) (murine DED model [2]; 14l high dose 0.025% or CsA (Zirun®) 0.05%, twice a day for 7 days): improved significantly | tear volume (Schirmer's test), 14l low dose (murine DED model [2]; 14l low dose 0.001% twice a day for 7 days): not in 14l low dose group | corneal fluorescein scores, 14l low dose (murine DED model [3]): higher than the two other treatment groups but lower than the DED control group | TNF-α protein expression [4]: inhibited TNF-α protein expression | EC50 [5]: 0.611 µM | TNF-α-induced TNFR1-Caspase3 activation [6]: effectively prevent TNF-α-induced TNFR1-Caspase3 activation | effect on SMS activity of HCEC ([7]; 1 μmol/L): efficient SMS inhibitory activities | adverse effect during the PK study ([8]; single drop 16 μg/eye): No adverse effect | ocular tissue distribution ([8]; single drop 16 μg/eye in 50% HP-β-CD): distributed mainly in the meibomian glands, conjunctiva and cornea | Mmp-9 mRNA expression in cornea [9, 15]: decreased significantly in all treatment groups | Tnf-α mRNA expression in cornea [9, 15]: decreased significantly in all treatment groups | Il-1β mRNA expression in cornea ([9]; 14l high dose 0.025% or CsA 0.05%): reduced only in 14l high dose group and CsA treatment group | HCEC viability (MTT) [10]: less influence on the cell viability | HCEC population integrity and early apoptosis proportion [11]: a higher integrity of HCEC population and a less early apoptosis proportion | levels of triglycerides (TG) and cholesterol esters (ChE) in meibomian glands ([12]; all treatment groups): not impacted in all treatment groups | proportion of very long chain SM species in meibomian glands ([12]; eye drops twice a day for 7 days): reduced the proportion of very long chain SM species | ceramide content in meibomian glands ([12]; high dosage of 14l (0.025%)): did not induce an extreme increase and accumulation for ceramide

Reference: PMC11873635 (Acta Pharmaceutica Sinica. B, 2024)
